Molecular target: T1, human kinase Mps-1 (Homo sapiens, UniProt P33981)
T1 construct: N-terminally GST-tagged human full length recombinant Mps-1 kinase; GST (N); purchased Invitrogen, Karslruhe, Germany PV4071
T1 sequence (P33981 1-857): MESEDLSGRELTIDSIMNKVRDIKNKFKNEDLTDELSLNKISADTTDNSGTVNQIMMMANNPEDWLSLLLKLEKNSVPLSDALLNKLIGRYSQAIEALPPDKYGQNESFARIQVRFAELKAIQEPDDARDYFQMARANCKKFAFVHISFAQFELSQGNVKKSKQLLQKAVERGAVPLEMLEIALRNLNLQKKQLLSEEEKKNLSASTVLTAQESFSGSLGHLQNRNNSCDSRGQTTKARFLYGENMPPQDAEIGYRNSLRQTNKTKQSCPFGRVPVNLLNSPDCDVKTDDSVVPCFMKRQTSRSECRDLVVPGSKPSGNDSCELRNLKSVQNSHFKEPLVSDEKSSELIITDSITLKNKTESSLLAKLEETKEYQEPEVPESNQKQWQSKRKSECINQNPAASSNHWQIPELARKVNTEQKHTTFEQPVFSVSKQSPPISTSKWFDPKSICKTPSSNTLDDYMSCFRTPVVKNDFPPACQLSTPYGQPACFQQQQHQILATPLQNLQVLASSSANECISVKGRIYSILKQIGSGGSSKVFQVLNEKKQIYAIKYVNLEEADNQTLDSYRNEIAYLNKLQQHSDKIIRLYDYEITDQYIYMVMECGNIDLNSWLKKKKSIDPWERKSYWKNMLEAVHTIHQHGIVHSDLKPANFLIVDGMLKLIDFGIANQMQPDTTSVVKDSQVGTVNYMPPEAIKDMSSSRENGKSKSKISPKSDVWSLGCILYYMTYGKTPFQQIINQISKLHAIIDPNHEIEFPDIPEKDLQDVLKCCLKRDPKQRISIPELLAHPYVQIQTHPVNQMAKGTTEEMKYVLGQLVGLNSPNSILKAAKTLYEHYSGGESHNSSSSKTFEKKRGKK
Test: Mps-1 kinase assay (TR-FRET)
Type: biochemical
Details: Mps-1 TR-FRET kinase assay; avg; read-out: Mps1 avg (IC50 [mol/l])
Method in brief: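 Inhibition normalised between uninhibited reaction (0%) and enzyme-free wells (100%), using the blank-corrected TR-FRET 665/620 nm ratio after EDTA stop. Reaction: ~0.5 nM GST-Mps-1 full length, 10 μM ATP, 1 μM biotin-peptide, 60 min at 22 °C, after 15 min compound pre-binding, pH 7.7.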

| Structure (SMILES) | IC50 |
| --- | --- |
| Cc1nsc(Nc2cnc(C(F)(F)F)cn2)c1C(=O)Nc1ccc(F)c(OC2CCN(CC(F)(F)F)C2)c1 (stereo not drawn) [Example 315, N-(4-fluoro-3-{[1-(2,2,2-trifluoroethyl)pyrrolidin-3-yl]oxy}phenyl)-3-methyl-5-{[5-(trifluoromethyl)pyrazin-2-yl]amino}-1,2-thiazole-4-carboxamide] | ≥ 20 µM |
| Cc1nsc(Nc2cnc(C(F)(F)F)cn2)c1C(=O)Nc1ccc(F)c(OCC2CCN(CC(F)F)C2)c1 (stereo not drawn) [Example 316, N-(3-{[1-(2,2-difluoroethyl)pyrrolidin-3-yl]methoxy}-4-fluorophenyl)-3-methyl-5-{[5-(trifluoromethyl)pyrazin-2-yl]amino}-1,2-thiazole-4-carboxamide] | ≥ 20 µM |
| Cc1nsc(Nc2cnc(C(F)(F)F)cn2)c1C(=O)Nc1ccc(F)c(OCC2CCN(CCF)C2)c1 (stereo not drawn) [Example 317, N-(4-fluoro-3-{[1-(2-fluoroethyl)pyrrolidin-3-yl]methoxy}phenyl)-3-methyl-5-{[5-(trifluoromethyl)pyrazin-2-yl]amino}-1,2-thiazole-4-carboxamide] | > 20 µM |
| Cc1nsc(Nc2cnc(C(F)(F)F)cn2)c1C(=O)Nc1ccc(F)c(OCC2CCN(C(CF)CF)C2)c1 (stereo not drawn) [Example 320, N-(3-{[1-(1,3-difluoropropan-2-yl)pyrrolidin-3-yl]methoxy}-4-fluorophenyl)-3-methyl-5-{[5-(trifluoromethyl)pyrazin-2-yl]amino}-1,2-thiazole-4-carboxamide] | ≥ 20 µM |
| Cc1nsc(Nc2cnc(C(F)(F)F)cn2)c1C(=O)Nc1ccc(OCCNCCF)nc1 [Example 321, N-(6-{2-[(2-fluoroethyl)amino]ethoxy}pyridin-3-yl)-3-methyl-5-{[5-(trifluoromethyl)pyrazin-2-yl]amino}-1,2-thiazole-4-carboxamide] | ≥ 20 µM |
| Cc1nsc(Nc2cnc(C(F)(F)F)cn2)c1C(=O)Nc1ccc(OCCNCC(F)(F)F)nc1 [Example 322, 3-methyl-N-(6-{2-[(2,2,2-trifluoroethyl)amino]ethoxy}pyridin-3-yl)-5-{[5-(trifluoromethyl)pyrazin-2-yl]amino}-1,2-thiazole-4-carboxamide] | ≥ 20 µM |

From patent publication US20170334899A1, “AMINO-SUBSTITUTED ISOTHIAZOLES” (Bayer Pharma Aktiengesellschaft, priority 2014, published 2017)
